In assay [1] the target is T1, hP2X3 (human Purinergic P2X receptors subtype 3), clone A (Homo sapiens, UniProt P56373).
T1 sequence (P56373 1-397): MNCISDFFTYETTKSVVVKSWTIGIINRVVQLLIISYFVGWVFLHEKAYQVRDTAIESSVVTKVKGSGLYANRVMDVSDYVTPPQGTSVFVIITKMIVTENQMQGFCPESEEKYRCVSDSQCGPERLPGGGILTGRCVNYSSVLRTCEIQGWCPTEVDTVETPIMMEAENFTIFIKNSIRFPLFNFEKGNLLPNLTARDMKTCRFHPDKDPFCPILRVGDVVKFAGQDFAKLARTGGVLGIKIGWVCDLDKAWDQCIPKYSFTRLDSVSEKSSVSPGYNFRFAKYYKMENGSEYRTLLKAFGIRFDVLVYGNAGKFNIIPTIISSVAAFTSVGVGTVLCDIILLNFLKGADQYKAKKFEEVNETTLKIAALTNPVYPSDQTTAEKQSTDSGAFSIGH
Briefly: hP2X3 FLIPR calcium (Fluo-4) antagonist assay, clone A. The following applies: Human P2X3 FLIPR Clone A Mean IC50 (nM), RLE cells expressing hP2X3 clone A (AB016608); agonist 500 nM α,β-methylene-ATP.

Assay [2] deals with T2, hP2X3 (human Purinergic P2X receptors subtype 3), clone B (Homo sapiens, UniProt P56373).
T2 sequence (P56373 1-397): T1 sequence (P56373 1-397)
Put plainly: hP2X3 FLIPR calcium (Fluo-4) antagonist assay, clone B. The following applies: Human P2X3 FLIPR Clone B IC50 (nM), RLE cells expressing hP2X3 clone B (NM_002559); agonist 500 nM α,β-methylene-ATP.

Structures are written as SMILES.

The term IC50 denotes the point on the concentration scale where inhibition reaches its midpoint. On to `CC(=O)N1CCN(c2nc3c(c(N(C)Cc4cc5ccc(F)cc5cn4)n2)CN(C(C)C)C3=O)CC1` [Example 350, 2-(4-acetylpiperazin-1-yl)-4-(((7-fluoroisoquinolin-3-yl)methyl)(methyl)amino)-6-isopropyl-5H-pyrrolo[3,4-d]pyrimidin-7(6H)-one], for which, in assay [1], the IC50 was determined as 29.9 nM. Still for that read-out and setting: in the case of `CCOc1ccc([C@@H](C)Nc2nc(N3CCN(C(C)=O)CC3)nc3c2CN(C(C)C)C3=O)c(OCC)c1` [Example 357, (R)-2-(4-acetylpiperazin-1-yl)-4-(1-(2,4-diethoxyphenyl)ethylamino)-6-isopropyl-5H-pyrrolo[3,4-d]pyrimidin-7(6H)-one] it was 163 nM. With `COc1cc(OC(C)C)ccc1CNc1nc(N2CCN(C(C)=O)CC2)nc2c1CN(C(C)C)C2=O` [Example 337, 2-(4-acetylpiperazin-1-yl)-4-(4-isopropoxy-2-methoxybenzylamino)-6-isopropyl-5H-pyrrolo[3,4-d]pyrimidin-7(6H)-one], the IC50 in assay [1] was found to be 79.5 nM. Still for that read-out and setting: in the case of `COc1ccc(C2CCCN2c2nc(N3CCN(C(C)=O)CC3)nc3c2CN(C(C)C)C3=O)cc1` (centres unmarked) [Example 299, 2-(4-acetylpiperazin-1-yl)-4-[2-(4-methoxyphenyl)pyrrolidin-1-yl]-6-(1-methylethyl)-5,6-dihydro-7H-pyrrolo[3,4-d]pyrimidin-7-one] it was 1140 nM; in that of `CC(=O)N1CCN(c2nc(N[C@H](C)c3ccc4c(c3)OC(F)(F)O4)c3c(n2)C(=O)N(C(C)C)C3)CC1` [Example 359, (R)-2-(4-acetylpiperazin-1-yl)-4-(1-(2,2-difluorobenzo[d][1,3]dioxol-5-yl)ethylamino)-6-isopropyl-5H-pyrrolo[3,4-d]pyrimidin-7(6H)-one], 511 nM; in that of `CC(C)N1Cc2c(nc(N3CCN(CC(F)(F)F)C(=O)C3)nc2N(C)Cc2cc3ccccc3cn2)C1=O` [Example 364, 6-isopropyl-4-((isoquinolin-3-ylmethyl)(methyl)amino)-2-(3-oxo-4-(2,2,2-trifluoroethyl)piperazin-1-yl)-5H-pyrrolo[3,4-d]pyrimidin-7(6H)-one], 795 nM. On the same count and under the same terms, for `CCOc1ccc([C@H]2CCCN2c2nc(N3CCN(C(C)=O)CC3)nc3c2CN(C(C)C)C3=O)cc1F` [Example 300, 2-(4-acetylpiperazin-1-yl)-4-[(2R)-2-(4-ethoxy-3-fluorophenyl)pyrrolidin-1-yl]-6-(1-methylethyl)-5,6-dihydro-7H-pyrrolo[3,4-d]pyrimidin-7-one] the value was 192 nM; for `CC(=O)N1CCN(c2nc(NCc3ccc4ccn(C)c4c3)c3c(n2)C(=O)N(C(C)C)C3)CC1` [Example 356, 2-(4-acetylpiperazin-1-yl)-6-(1-methylethyl)-4-{[(1-methyl-1H-indol-6-yl)methyl]amino}-5,6-dihydro-7H-pyrrolo[3,4-d]pyrimidin-7-one], 1060 nM. Same read-out and setting: for `CCOc1cc(OC)ccc1CN(C)c1nc(N2CCN(C(C)=O)CC2)nc2c1CN(C(C)C)C2=O` [Example 336, 2-(4-acetylpiperazin-1-yl)-4-((2-ethoxy-4-methoxybenzyl)(methyl)amino)-6-isopropyl-5H-pyrrolo[3,4-d]pyrimidin-7(6H)-one] the value was 1610 nM; for `CC(=O)N1CCN(c2nc3c(c(N(C)Cc4ccc5c(c4)OC(F)(F)O5)n2)CN(C(C)C)C3=O)CC1` [Example 360, 2-(4-acetylpiperazin-1-yl)-4-(((2,2-difluorobenzo[d][1,3]dioxol-5-yl)methyl)(methyl)amino)-6-isopropyl-5H-pyrrolo[3,4-d]pyrimidin-7(6H)-one], more than 30000 nM.

Consider `CCOc1ncc([C@@H](C)Nc2nc(N3CCN(C(C)=O)CC3)nc3c2CN(C(C)C)C3=O)cc1C` [Example 331, (R)-2-(4-acetylpiperazin-1-yl)-4-(1-(6-ethoxy-5-methylpyridin-3-yl)ethylamino)-6-isopropyl-5H-pyrrolo[3,4-d]pyrimidin-7(6H)-one], for which, in assay [1], the half-maximal inhibitory concentration (IC50) came to 195 nM. Still for that read-out and setting: in the case of `CCOc1ccc([C@@H](C)Nc2nc(N3CCN(CC(F)(F)F)C(=O)C3)nc3c2CN(C(C)C)C3=O)cc1` [Example 363, (R)-4-(1-(4-ethoxyphenyl)ethylamino)-6-isopropyl-2-(3-oxo-4-(2,2,2-trifluoroethyl)piperazin-1-yl)-5H-pyrrolo[3,4-d]pyrimidin-7(6H)-one] it was 574 nM; in that of `CC(=O)N1CCN(c2nc(NCc3ccc4c(ccn4C)c3)c3c(n2)C(=O)N(C(C)C)C3)CC1` [Example 354, 2-(4-acetylpiperazin-1-yl)-6-(1-methylethyl)-4-{[(1-methyl-1H-indol-5-yl)methyl]amino}-5,6-dihydro-7H-pyrrolo[3,4-d]pyrimidin-7-one], 494 nM.

Turning to `CC(=O)N1CCN(c2nc3c(c(N(C)Cc4cc5ccc(Cl)cc5cn4)n2)CN(C(C)C)C3=O)CC1` [Example 341, 2-(4-acetylpiperazin-1-yl)-4-(((7-chloroisoquinolin-3-yl)methyl)(methyl)amino)-6-isopropyl-5H-pyrrolo[3,4-d]pyrimidin-7(6H)-one], the IC50 in assay [1] was 29.2 nM. Turning to `CCOc1ccc(CNc2nc(N3CCN(C(C)=O)CC3)nc3c2CN(C(C)C)C3=O)c(OC)c1` [Example 335, 2-(4-acetylpiperazin-1-yl)-4-(4-ethoxy-2-methoxybenzylamino)-6-isopropyl-5H-pyrrolo[3,4-d]pyrimidin-7(6H)-one], the IC50 in assay [1] was 225 nM.

As for `CC(=O)N1CCN(c2nc(NCc3ccc4c(c3)CC(C)O4)c3c(n2)C(=O)N(C(C)C)C3)CC1` (centres unmarked) [Example 323, 2-(4-acetylpiperazin-1-yl)-6-isopropyl-4-((2-methyl-2,3-dihydrobenzofuran-5-yl)methylamino)-5H-pyrrolo[3,4-d]pyrimidin-7(6H)-one], the IC50 in assay [1] came to 410 nM. Still for that read-out and setting: for `CC(=O)N1CCN(c2nc(N[C@H](C)c3ccc(OCC4CC4)c(F)c3)c3c(n2)C(=O)N(C(C)C)C3)CC1` [Example 322, (R)-2-(4-acetylpiperazin-1-yl)-4-(1-(4-(cyclopropylmethoxy)-3-fluorophenyl)ethylamino)-6-isopropyl-5H-pyrrolo[3,4-d]pyrimidin-7(6H)-one] the value was 1900 nM; for `CC(=O)N1CCN(c2nc(N[C@H](C)c3ccc(CN(C)C)cc3)c3c(n2)C(=O)N(C(C)C)C3)CC1` [Example 358, (R)-2-(4-acetylpiperazin-1-yl)-4-(1-(4-((dimethylamino)methyl)phenyl)ethylamino)-6-isopropyl-5H-pyrrolo[3,4-d]pyrimidin-7(6H)-one], more than 30000 nM; for `CCOc1ccc([C@@H](C)Nc2nc(N3CCN(CC)C(=O)C3)nc3c2CN(C(C)C)C3=O)cc1` [Example 361, (R)-4-(1-(4-ethoxyphenyl)ethylamino)-2-(4-ethyl-3-oxopiperazin-1-yl)-6-isopropyl-5H-pyrrolo[3,4-d]pyrimidin-7(6H)-one], 327 nM. The same measure, in the same setting: in the case of `CC(=O)N1CCN(c2nc3c(c(N(C)Cc4cc5cc(C)ccc5cn4)n2)CN(C(C)C)C3=O)CC1` [Example 342, 2-(4-acetylpiperazin-1-yl)-6-isopropyl-4-(methyl((6-methylisoquinolin-3-yl)methyl)amino)-5H-pyrrolo[3,4-d]pyrimidin-7(6H)-one] it was 1230 nM; in that of `CCCOc1ccc([C@@H](C)Nc2nc(N3CCN(C(C)=O)CC3)nc3c2CN(C(C)C)C3=O)cc1F` [Example 193, (R)-2-(4-acetylpiperazin-1-yl)-4-(1-(3-fluoro-4-propoxyphenyl)ethylamino)-6-isopropyl-5H-pyrrolo[3,4-d]pyrimidin-7(6H)-one], 235 nM. In the case of `CC(C)CN1Cc2c(NC(c3ccccc3)c3ccccc3)nc(N3CCOCC3)nc2C1=O` [Example 73, 4-(Benzhydryl-amino)-6-isobutyl-2-morpholin-4-yl-5,6-dihydro-pyrrolo[3,4-d]pyrimidin-7-one], in assay [2], the IC50 was 3800 nM. On the same count and under the same terms, in the case of `COc1cccc([C@@H](C)Nc2nc(N3CCN(C(C)=O)CC3)nc3c2CN(C(C)C)C3=O)c1` [Example 227, (R)-2-(4-acetylpiperazin-1-yl)-6-isopropyl-4-(1-(3-methoxyphenyl)ethylamino)-5H-pyrrolo[3,4-d]pyrimidin-7(6H)-one] it was 8500 nM.

For the compound `CC(=O)N1CCN(c2nc(NCC(c3ccccc3)c3ccccc3)c3c(n2)C(=O)N(C(C)C)C3)CC1` [Example 91, 2-(4-acetylpiperazin-1-yl)-4-[(2,2-diphenylethyl)amino]-6-isopropyl-5,6-dihydro-7H-pyrrolo[3,4-d]pyrimidin-7-one], the IC50 in assay [2] was 100 nM.

Consider `CC(=O)N1CCN(c2nc3c(c(N(Cc4ccc(F)cc4)C4CCCC4)n2)CN(C(C)C)C3=O)CC1` [Example 4, 2-(4-acetylpiperazin-1-yl)-4-[cyclopentyl(4-fluorobenzyl)amino]-6-isopropyl-5,6-dihydro-7H-pyrrolo[3,4-d]pyrimidin-7-one], for which, in assay [2], the IC50 stood at 800 nM. On the same count and under the same terms, for `CC(C)N1Cc2c(NC3c4cc(F)ccc4CCc4ncccc43)nc(NCCN(C)C)nc2C1=O` (centres unmarked) [Example 22, 2-{[2-(dimethylamino)ethyl]amino}-4-[(7-fluoro-10,11-dihydro-5H-benzo[4,5]cyclohepta[1,2-b]pyridin-5-yl)amino]-6-isopropyl-5,6-dihydro-7H-pyrrolo[3,4-d]pyrimidin-7-one] the value was 270 nM.

The record behind these values is patent US20090099195A1 (ASTRAZENECA AB, priority 2007, published 2009).
